Experimental findings from patent US8512709B2, “Modified amyloid β peptide” (The Chemo-Sero-Therapeutic Research Institue, priority 2008, dated 2013) are described below.

The experiment concerns Aβ peptide (1-40 amino acid sequence). Put plainly: Anti-Aβ IgG antibody titer of murine serum after immunization with Aβ peptides (ELISA on immobilized Aβ 1-40). To be noted: for Antibody titer Animal No. 1 / Antibody titer Animal No. 2 / Antibody titer Animal No. 3 / Antibody titer Animal No. 4: C57BL/6 mouse serum, Day 7 from final 3rd immunization; for Antibody titer Animal No. 1 / Antibody titer Animal No. 2 / Antibody titer Animal No. 3 / Antibody titer Animal No. 4 / Antibody titer Mean: 100 μg/mouse; for Antibody titer Mean: mean of 4 mice, serum Day 7 from final 3rd immunization. The experiment is classed as in vivo, C57BL/6 mice.

The mark [1] stands for this setting: Example 4, result in words on Table 4.
Setting [2] is: Example 7, result in words on Table 7.
The mark [3] stands for this setting: Example 8, result in words on Table 8.
[4] abbreviates: Example 2, result in words on Table 2.

Turning to “AEFRHDSGKGAIIGLMVGC (added cysteine) [2-9•28-37AACys, 2-9+28-37-amino acid Aβ peptide with addition of Cysteine]”, where the note is “Example 4”, the “Antibody titer Animal No. 1” value was 7038 ng/mL, the “Antibody titer Animal No. 2” value came to 29489 ng/mL, the “Antibody titer Animal No. 3” value came to 16 ng/mL and the “Antibody titer Animal No. 4” value is 17 ng/mL. In addition, the “Antibody titer Mean” value (Example 4) is recorded as 9139.9 ng/mL. For the same sequence, the “induction of an antibody to Aβ” value under setting [1] was “observed”.

On to “AEFRHDSGYKGAIIGLMVGC [2-10•28-37AACys, 2-10+28-37-amino acid Aβ peptide with addition of Cysteine]”, for which, under “Example 4”, the “Antibody titer Animal No. 1” value was 72890 ng/mL, the “Antibody titer Animal No. 2” value came out at 57573 ng/mL, the “Antibody titer Animal No. 3” value was 6094 ng/mL and the “Antibody titer Animal No. 4” value is reported as 42593 ng/mL. The “Antibody titer Mean” value (Example 4) is recorded as 44787.5 ng/mL. In addition, the “induction of an antibody to Aβ” value under setting [1] was “observed”.

On to “DAEFRHDKGAIIGLMVGC [1-7•28-37AACys, 1-7+28-37-amino acid Aβ peptide with addition of Cysteine]”, for which, under “Example 3”, the “Antibody titer Animal No. 1” value is recorded as 26 ng/mL, the “Antibody titer Animal No. 2” value was found to be 27 ng/mL, the “Antibody titer Animal No. 3” value came out at 34 ng/mL and the “Antibody titer Animal No. 4” value came out at 15 ng/mL. In addition, the “Antibody titer Mean” value (Example 3) is listed as 25.6 ng/mL.

Take “DAEFRHDSGKGAIIGLMVGC [1-9•28-37AACys, 1-9+28-37-amino acid Aβ peptide with addition of Cysteine]”: where the note is “Example 3”, the “Antibody titer Animal No. 1” value is given as 398 ng/mL, the “Antibody titer Animal No. 2” value is recorded as 249 ng/mL, the “Antibody titer Animal No. 3” value is recorded as 2772 ng/mL and the “Antibody titer Animal No. 4” value was determined as 8899 ng/mL. Besides, the “Antibody titer Mean” value (Example 3) was determined as 3079.5 ng/mL. For the same sequence, the “induction of an antibody to Aβ” value (Example 3, result in words on Table 3) is “observed”.

Consider “DAEFRHDSGYAIIGLMVGGVVIAC [1-10•30-42AACys, 1-10+30-42-amino acid Aβ peptide with addition of Cysteine]”, for which, where the note is “Example 1”, the “Antibody titer Animal No. 1” value is 9 ng/mL, the “Antibody titer Animal No. 2” value is reported as 7 ng/mL, the “Antibody titer Animal No. 3” value is 11 ng/mL and the “Antibody titer Animal No. 4” value turned out to be 8 ng/mL. For the setting “Example 1”, the “Antibody titer Mean” value is 8.4 ng/mL.

For “DAEFRHDSGYEVHHQKLVCFFAEDVG [1-18Cys19-25AA, 25-amino acid Aβ peptide wherein cysteine is inserted between residues Nos. 18 and 19]”, where the note is “Example 7”, the “Antibody titer Animal No. 1” value is 1.5 ng/mL, the “Antibody titer Animal No. 2” value was 6.6 ng/mL, the “Antibody titer Animal No. 3” value is given as 71.4 ng/mL and the “Antibody titer Animal No. 4” value stood at 1398 ng/mL. Further, the “Antibody titer Mean” value (Example 7) came to 369.4 ng/mL. For the same sequence, the “induction of an antibody to Aβ” value under setting [2] is recorded as “observed in one of four cases”.

In the case of “DAEFRHDSGYEVHHQKLVCFFAEDVGS [1-18Cys19-26AA, 26-amino acid Aβ peptide wherein cysteine is inserted between residues Nos. 18 and 19]”, for the setting “Example 7”, the “Antibody titer Animal No. 1” value came to 127.5 ng/mL, the “Antibody titer Animal No. 2” value is 7001 ng/mL, the “Antibody titer Animal No. 3” value is recorded as 15779 ng/mL and the “Antibody titer Animal No. 4” value is on record as 164 ng/mL. Moreover, where the note is “Example 7”, the “Antibody titer Mean” value is 5767.9 ng/mL. Under setting [2], the “induction of an antibody to Aβ” value is recorded as “observed”.

On to “DAEFRHDSGYEVHHQKLVCFFAEDVGSN [1-18Cys19-27AA, 27-amino acid Aβ peptide wherein cysteine is inserted between residues Nos. 18 and 19]”, for which, for the setting “Example 7”, the “Antibody titer Animal No. 1” value was determined as 2482 ng/mL, the “Antibody titer Animal No. 2” value turned out to be 3125 ng/mL, the “Antibody titer Animal No. 3” value came to 2631 ng/mL and the “Antibody titer Animal No. 4” value is on record as 17.2 ng/mL. Also, the “Antibody titer Mean” value (Example 7) is on record as 2063.8 ng/mL. Further, the “induction of an antibody to Aβ” value under setting [2] was “observed”.

Consider “DAEFRHDSGYEVHHQKLVCFFAEDVGSNK [1-18Cys19-28AA, 28-amino acid Aβ peptide wherein cysteine is inserted between residues Nos. 18 and 19]”, for which, under “Example 6”, the “Antibody titer Animal No. 1” value came to 448154 ng/mL, the “Antibody titer Animal No. 2” value came to 97146 ng/mL, the “Antibody titer Animal No. 3” value is listed as 233411 ng/mL and the “Antibody titer Animal No. 4” value is on record as 57794 ng/mL. Further, the “Antibody titer Mean” value (Example 6) is on record as 209126.3 ng/mL.

For the sequence “DAEFRHDSGYEVHHQKLVCFFAEDVGSNKC [1-18Cys19-28AACys]”, for the setting “Example 6”, the “Antibody titer Animal No. 1” value turned out to be 19908 ng/mL, the “Antibody titer Animal No. 2” value was 361259 ng/mL, the “Antibody titer Animal No. 3” value turned out to be 4161 ng/mL and the “Antibody titer Animal No. 4” value is 29412 ng/mL. For the same sequence, the “Antibody titer Mean” value (Example 6) was 103685.0 ng/mL.

For the sequence “DAEFRHDSGYEVHHQKLVCKGAIIGLMVG [1-18Cys28-37AA, Aβ residues 1-18, cysteine, then Aβ residues 28-37]”, under “Example 8”, the “Antibody titer Animal No. 1” value is 12541 ng/mL, the “Antibody titer Animal No. 2” value worked out at 1964 ng/mL, the “Antibody titer Animal No. 3” value turned out to be 599 ng/mL and the “Antibody titer Animal No. 4” value amounted to 25102 ng/mL. The “Antibody titer Mean” value (Example 8) was 10051.5 ng/mL. The “induction of an antibody to Aβ” value under setting [3] is “observed”.

Take “DAEFRHDSGYEVHHQKLVCKGAIIGLMVGC [1-18Cys28-37AACys, Aβ residues 1-18, cysteine, Aβ residues 28-37, C-terminal cysteine]”: for the setting “Example 8”, the “Antibody titer Animal No. 1” value is recorded as 1073 ng/mL, the “Antibody titer Animal No. 2” value is listed as 43 ng/mL, the “Antibody titer Animal No. 3” value was determined as 10 ng/mL and the “Antibody titer Animal No. 4” value was determined as 4864 ng/mL. Moreover, the “Antibody titer Mean” value (Example 8) was determined as 1497.5 ng/mL. In addition, the “induction of an antibody to Aβ” value under setting [3] was “observed”.

Consider “DAEFRHDSGYEVHHQKLVKGAIIGLMVG [1-18•28-37AA, reference compound]”, for which, where the note is “Example 8”, the “Antibody titer Animal No. 1” value turned out to be 11 ng/mL, the “Antibody titer Animal No. 2” value is recorded as 11 ng/mL, the “Antibody titer Animal No. 3” value turned out to be 11 ng/mL and the “Antibody titer Animal No. 4” value amounted to 9 ng/mL. Also, for the setting “Example 8”, the “Antibody titer Mean” value was found to be 10.5 ng/mL.

Turning to “DAEFRHDSGYEVHHQKLVKGAIIGLMVGC [1-18•28-37AACys]”, under “Example 8”, the “Antibody titer Animal No. 1” value is on record as 11 ng/mL, the “Antibody titer Animal No. 2” value stood at 9 ng/mL, the “Antibody titer Animal No. 3” value came to 10 ng/mL and the “Antibody titer Animal No. 4” value is on record as 13 ng/mL. The “Antibody titer Mean” value (Example 8) was found to be 10.75 ng/mL.

“DAEFRHDSGYEVHHQKLVKGAIIGLMVGGVVIAC [1-18•28-42AACys, 1-18+28-42-amino acid Aβ peptide with addition of Cysteine]”: for the setting “Example 5”, the “Antibody titer Animal No. 1” value is on record as 69336 ng/mL, the “Antibody titer Animal No. 2” value was found to be 41211 ng/mL, the “Antibody titer Animal No. 3” value was found to be 51611 ng/mL and the “Antibody titer Animal No. 4” value is reported as 7004 ng/mL. The “Antibody titer Mean” value (Example 5) came to 42290.5 ng/mL.

“DAEFRHDSGYGAIIGLMVGGVVIAC [1-10•29-42AACys, 1-10+29-42-amino acid Aβ peptide with addition of Cysteine]”: under “Example 1”, the “Antibody titer Animal No. 1” value was 16 ng/mL, the “Antibody titer Animal No. 2” value came out at 16 ng/mL, the “Antibody titer Animal No. 3” value is 87 ng/mL and the “Antibody titer Animal No. 4” value is recorded as 11 ng/mL. The “Antibody titer Mean” value (Example 1) worked out at 32.6 ng/mL.

As to “DAEFRHDSGYKGAIIGLC [1-10•28-34AACys, 1-10+28-34-amino acid Aβ peptide with addition of Cysteine]”, where the note is “Example 2”, the “Antibody titer Animal No. 1” value was determined as 29 ng/mL, the “Antibody titer Animal No. 2” value is 30 ng/mL, the “Antibody titer Animal No. 3” value turned out to be 26 ng/mL and the “Antibody titer Animal No. 4” value is recorded as 25 ng/mL. Further, the “Antibody titer Mean” value (Example 2) is given as 27.4 ng/mL.

On to “DAEFRHDSGYKGAIIGLMC [1-10•28-35AACys, 1-10+28-35-amino acid Aβ peptide with addition of Cysteine]”, for which, where the note is “Example 2”, the “Antibody titer Animal No. 1” value is on record as 44 ng/mL, the “Antibody titer Animal No. 2” value came out at 19 ng/mL, the “Antibody titer Animal No. 3” value is on record as 8361 ng/mL and the “Antibody titer Animal No. 4” value is 220 ng/mL. In addition, the “Antibody titer Mean” value (Example 2) stood at 2161.0 ng/mL.

As for “DAEFRHDSGYKGAIIGLMVC [1-10•28-36AACys, 1-10+28-36-amino acid Aβ peptide with addition of Cysteine]”, under “Example 2”, the “Antibody titer Animal No. 1” value amounted to 11821 ng/mL, the “Antibody titer Animal No. 2” value is on record as 259763 ng/mL, the “Antibody titer Animal No. 3” value is listed as 77 ng/mL and the “Antibody titer Animal No. 4” value worked out at 44922 ng/mL. In addition, the “Antibody titer Mean” value (Example 2) amounted to 79145.6 ng/mL. Besides, under setting [4], the “induction of an antibody to Aβ” value was “observed”.

As for “DAEFRHDSGYKGAIIGLMVGC [1-10•28-37AACys, 1-10+28-37-amino acid Aβ peptide with addition of Cysteine]”, under “Example 2”, the “Antibody titer Animal No. 1” value came out at 79708 ng/mL, the “Antibody titer Animal No. 2” value is 1531 ng/mL, the “Antibody titer Animal No. 3” value is 24694 ng/mL and the “Antibody titer Animal No. 4” value is recorded as 100619 ng/mL. For the setting “Example 2”, the “Antibody titer Mean” value was 51638.0 ng/mL. Besides, under setting [4], the “induction of an antibody to Aβ” value was “observed”.
